From ChEMBL document CHEMBL1157489, “Identification of novel non-peptide CXCR4 antagonists by ligand-based design approach” (Bioorg Med Chem Lett, 2008)
pEC50, pIC50: −log10 of the molar value.

Columns and labels:
[1] = biological target: T1, C-X-C chemokine receptor type 4 (Homo sapiens, UniProt P61073); assay: Displacement of [125I]SDF1 from human CXCR4 expressed in CHO cells; format: cell-based
[2] = biological target: T1, C-X-C chemokine receptor type 4; assay: Displacement of [125I]SDF1 from human CXCR4 expressed in CHO cells at 10 uM; format: cell-based
[3] = tested on: Human immunodeficiency virus 1; assay: Antiviral activity against HIV1 3B assessed as inhibition of virus-induced cytopathogenicity; format: functional, organism-based; details: Human immunodeficiency virus 1, 3B

T1 sequence (P61073 whole entry): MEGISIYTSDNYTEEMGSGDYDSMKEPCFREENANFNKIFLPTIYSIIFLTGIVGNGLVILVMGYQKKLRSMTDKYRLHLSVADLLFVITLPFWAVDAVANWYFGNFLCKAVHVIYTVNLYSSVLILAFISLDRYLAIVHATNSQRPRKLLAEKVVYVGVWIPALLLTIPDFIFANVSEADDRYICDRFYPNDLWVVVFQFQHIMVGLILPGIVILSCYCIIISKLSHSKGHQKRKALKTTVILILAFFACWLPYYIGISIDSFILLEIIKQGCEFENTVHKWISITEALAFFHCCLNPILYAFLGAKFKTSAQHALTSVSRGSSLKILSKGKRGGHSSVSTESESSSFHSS

Row | SMILES | pIC50 [1] | Activity [2] | pEC50 [3]
1 | N=C(N)NCCCn1c(C(=O)NCCc2c[nH]c3ccccc23)cc2cc(NC(=O)CCNC(=N)N)ccc21 |  | 70% | 
2 | N=C(N)NCCCn1c(C(=O)NCCc2c[nH]c3ccccc23)cc2cc(NC(=O)[C@H](Cc3ccccc3)NC(=N)N)ccc21 | 5.77 |  | 
3 | NC(N)=NCCc1cc2cc(NC(=O)CCc3ccc(O)cc3)ccc2n1CCc1ccc2ccccc2c1 | 5.57 |  | 
4 | N=C(N)NCCCn1c(C(=O)NCCc2c[nH]c3ccccc23)cc2cc(NC(=O)C3CCN(C(=N)N)CC3)ccc21 | 5.52 | 86% | 
5 | N=C(N)NCCCn1c(C(=O)NCCc2cccc3ccccc23)cc2cc(NC(=O)CNC(=N)N)ccc21 |  | 61% | 
6 | N=C(N)NCCCn1c(C(=O)NCCc2c[nH]c3ccccc23)cc2cc(NC(=O)C(Cc3ccccc3)NC(=N)N)ccc21 (racemic) |  | 72% | 
7 | N=C(N)NCCCn1c(C(=O)NCCc2c[nH]c3ccccc23)cc2cc(NC(=O)[C@@H](Cc3ccccc3)NC(=N)N)ccc21 | 5.43 |  | 
8 | CC(C)C[C@H](NC(=N)N)C(=O)Nc1ccc2c(c1)cc(C(=O)NCCc1c[nH]c3ccccc13)n2CCCNC(=N)N | 5.92 |  | 5.27
9 | CC(C)CC(NC(=N)N)C(=O)Nc1ccc2c(c1)cc(C(=O)NCCc1c[nH]c3ccccc13)n2CCCNC(=N)N (racemic) |  | 77% | 
10 | N=C(N)NCCCn1c(C(=O)NCCc2c[nH]c3ccccc23)cc2cc(NC(=O)CNC(=N)N)ccc21 |  | 88% | 
11 | CC(C)C[C@@H](NC(=N)N)C(=O)Nc1ccc2c(c1)cc(C(=O)NCCc1c[nH]c3ccccc13)n2CCCNC(=N)N | 5.66 |  | 

Continued, values first:

Row | pIC50 [1] | Activity [2] | pEC50 [3] | SMILES
12 | 5.32 |  |  | NC(N)=NCCCn1c(C(=O)Nc2cccc3ccccc23)cc2cc(NC(=O)Cc3ccc(O)cc3)ccc21
13 |  | 55% |  | N=C(N)NCCCn1c(C(=O)Nc2cccc3ccccc23)cc2cc(NC(=O)CCc3ccc(O)cc3)ccc21
14 |  | 53% |  | N=C(N)NCCc1cc2cc(NC(=O)CCc3ccc(O)cc3)ccc2n1CCc1ccc2ccccc2c1
15 |  | 62% |  | N=C(N)NCCCn1c(C(=O)Nc2cccc3ccccc23)cc2cc(NC(=O)Cc3ccc(O)cc3)ccc21
16 |  | 63% |  | N=C(N)NCCCn1c(C(=O)NCCc2ccc3ccccc3c2)cc2cc(NC(=O)CNC(=N)N)ccc21
17 | 5.52 |  |  | NC(N)=NCCCn1c(C(=O)NCCc2c[nH]c3ccccc23)cc2cc(NC(=O)CN=C(N)N)ccc21
18 |  | 23% |  | N=C(N)NCCCn1c(C(=O)NCCc2ccc(O)cc2)cc2cc(NC(=O)CNC(=N)N)ccc21
